Laboratory results from ChEMBL document CHEMBL3044866, “A facile and single pot strategy for the synthesis of novel naphthyridine derivatives under microwave irradiation conditions using ZnCl2 as catalyst, evaluation of AChE inhibitory activity, and molecular modeling studies” (Med Chem Res, 2012).

What was measured:
[1] = target: Acetylcholinesterase (Homo sapiens, UniProt P22303); assay: Inhibition of AChE (unknown origin) after 10 min by Ellmans method
[2] = Cytotoxicity against Homo sapiens (human) THLE2 cells assessed as cell death at 10 uM after 48 hr by MTT assay; format: cell-based; conditions: thle-2, 48 h
[3] = in vitro; conditions: human, THLE2 cells
Description: Cytotoxicity against Homo sapiens (human) THLE2 cells assessed as viable cells at 10 uM after 48 hr by MTT assay

[4] = in vitro; conditions: human, THLE2 cells; remark: listed apart in the source
Description: Cytotoxicity against Homo sapiens (human) THLE2 cells assessed as viable cells at 0.5 uM after 48 hr by MTT assay

[5] = in vitro; conditions: human, THLE2 cells; remark: listed apart in the source
Description: Cytotoxicity against Homo sapiens (human) THLE2 cells assessed as viable cells at 1 uM after 48 hr by MTT assay

Sequence of Acetylcholinesterase (P22303 whole entry): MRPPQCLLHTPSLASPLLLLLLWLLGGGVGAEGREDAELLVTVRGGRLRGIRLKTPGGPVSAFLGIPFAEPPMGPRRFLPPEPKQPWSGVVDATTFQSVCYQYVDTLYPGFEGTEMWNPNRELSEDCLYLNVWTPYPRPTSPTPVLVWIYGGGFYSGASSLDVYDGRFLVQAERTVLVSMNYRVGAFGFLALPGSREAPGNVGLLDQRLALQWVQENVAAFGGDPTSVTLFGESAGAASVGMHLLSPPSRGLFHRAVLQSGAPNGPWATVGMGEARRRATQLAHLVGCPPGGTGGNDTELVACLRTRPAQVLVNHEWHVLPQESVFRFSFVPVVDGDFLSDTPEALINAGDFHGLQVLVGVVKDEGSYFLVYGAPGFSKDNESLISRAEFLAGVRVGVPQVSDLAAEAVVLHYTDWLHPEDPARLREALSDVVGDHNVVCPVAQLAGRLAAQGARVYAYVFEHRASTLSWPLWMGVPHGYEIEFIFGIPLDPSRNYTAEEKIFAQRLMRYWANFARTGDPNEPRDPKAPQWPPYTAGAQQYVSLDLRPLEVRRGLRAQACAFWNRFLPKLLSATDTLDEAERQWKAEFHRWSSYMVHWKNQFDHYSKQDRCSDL

| SMILES | IC50 [1] | other results |
| --- | --- | --- |
| Nc1cc(-c2ccccc2)nc2nc(-c3ccccc3)cc(C(F)(F)F)c12 | 7.1 µM | – |
| Nc1cc(-c2cccc(F)c2)nc2nc(-c3ccccc3)cc(C(F)(F)F)c12 | 7.03 µM | – |
| Nc1cc(-c2ccc(F)cc2)nc2nc(-c3ccccc3)cc(C(F)(F)F)c12 | 6.58 µM | – |
| Nc1cc(-c2ccc(Cl)cc2)nc2nc(-c3ccccc3)cc(C(F)(F)F)c12 | 0.52 µM | Activity [2]: 16%; viability at 48 h, 10 µM [3]: 84.2%; viability at 48 h, 0.5 µM [4]: 97.1%; viability at 48 h, 1 µM [5]: 98.1% |
| Nc1cc(-c2ccccc2Br)nc2nc(-c3ccccc3)cc(C(F)(F)F)c12 | 0.89 µM | viability at 48 h, 10 µM [3]: 99.9%; viability at 48 h, 0.5 µM [4]: 98.7%; viability at 48 h, 1 µM [5]: 95.9% |
| COc1ccc(-c2cc(N)c3c(C(F)(F)F)cc(-c4ccccc4)nc3n2)cc1 | 8.24 µM | – |
| Nc1cc(-c2cccs2)nc2nc(-c3ccccc3)cc(C(F)(F)F)c12 | 10.4 µM | – |
| CC(C)Cc1cc(N)c2c(C(F)(F)F)cc(-c3ccccc3)nc2n1 | 19.1 µM | – |
| Nc1c2c(nc3nc(-c4ccccc4)cc(C(F)(F)F)c13)CCC2 | 8.05 µM | – |
| Nc1c2c(nc3nc(-c4ccccc4)cc(C(F)(F)F)c13)CCCC2 | 0.35 µM | – |
| Nc1c2c(nc3nc(-c4ccccc4)cc(C(F)(F)F)c13)CCCCC2 | 10.1 µM | – |
| Nc1c2c(nc3nc(-c4ccccc4)cc(C(F)(F)F)c13)CCCCCC2 | 7.69 µM | – |
| CC1Cc2nc3nc(-c4ccccc4)cc(C(F)(F)F)c3c(N)c2C1 (centres undefined) | 9.37 µM | – |
| CC1CCc2c(nc3nc(-c4ccccc4)cc(C(F)(F)F)c3c2N)C1 (centres undefined) | 3.25 µM | – |
| CC1CCc2nc3nc(-c4ccccc4)cc(C(F)(F)F)c3c(N)c2C1 (centres undefined) | 0.51 µM | – |
| Nc1c2c(nc3nc(-c4ccccc4)cc(C(F)(F)F)c13)-c1ccccc1C2 | 17.6 µM | – |
| Nc1c2c(nc3nc(-c4ccccc4)cc(C(F)(F)F)c13)-c1ccccc1CC2 | 23.1 µM | – |
